Experimental data as given in ChEMBL document CHEMBL1201862, “PubChem BioAssay data set” (2004).
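96-well plates; 48 h exposure; 5 concentrations. Endpoints by linear interpolation between flanking doses. Not reached: highest tested concentration assigned. GI50: concentration for 50% inhibition of growth.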 Active and inactive are the calls of the source. Cut-off read from the data, not from the text of the source: active = GI50 up to about 1.1 µM and inactive = higher.

Legend:
Experiment in all cases: NCI-60 cell line screen, 48 h
[1] = tested on: UACC-257
[2] = tested on: UO-31
[3] = tested on: OVCAR-4
[4] = tested on: SR
[5] = tested on: UACC-62
[6] = tested on: LOX IMVI
[7] = tested on: HOP-62
[8] = tested on: NCI-H23
[9] = tested on: HCT-15
[10] = tested on: MCF7
[11] = tested on: SF-268
[12] = tested on: Hs-578T
[13] = tested on: SK-OV-3
[14] = tested on: MDA-MB-435
[15] = tested on: OVCAR-8
[16] = tested on: NCI-H226
[17] = tested on: SF-295
[18] = tested on: RXF 393
[19] = tested on: RPMI-8226
[20] = tested on: NCI-H460

SMILES | GI50 [1] | GI50 [2] | GI50 [3] | GI50 [4] | GI50 [5] | GI50 [6] | GI50 [7] | GI50 [8] | GI50 [9] [µM] | GI50 [10] | GI50 [11] | GI50 [12] | GI50 [13] | GI50 [14] | GI50 [15] | GI50 [16] | GI50 [17] | GI50 [18] | GI50 [19] | GI50 [20]
Cc1nn(CN2CCN(C)CC2)c(=S)n1/N=C/c1ccc(-c2ccc(Cl)cc2Cl)o1 | 66.7 µM (inactive) | 92.9 µM (inactive) | 37.4 µM (inactive) | 37 µM (inactive) | 99.5 µM (inactive) | 60.7 µM (inactive) | > 100 µM (inactive) | 71.6 µM (inactive) | 47.2 | 33.4 µM (inactive) | 92.5 µM (inactive) | > 100 µM (inactive) | > 100 µM (inactive) | 36.1 µM (inactive) | 51.3 µM (inactive) | 29.4 µM (inactive) |  |  |  | 
S=C(Nc1ccc2c(c1)oc1ccccc12)c1cccs1 | > 100 µM (inactive) | > 100 µM (inactive) | 30.6 µM (inactive) | 4.25 µM (inactive) | 82.8 µM (inactive) | 7.73 µM (inactive) | 25.4 µM (inactive) | > 100 µM (inactive) | > 100 | 24.1 µM (inactive) | 38.1 µM (inactive) | 29.8 µM (inactive) | 37.9 µM (inactive) | > 100 µM (inactive) | 18.7 µM (inactive) | > 100 µM (inactive) | 16.6 µM (inactive) | 27.9 µM (inactive) |  | 
CC(C)(O)C1COC2=C1C(=O)c1ccccc1C2=O (stereo unspecified) | 71.9 µM (inactive) | 81.1 µM (inactive) | 71 µM (inactive) |  | 22.9 µM (inactive) | 19.2 µM (inactive) |  | 18.2 µM (inactive) | 27.5 | 20.3 µM (inactive) | 21.6 µM (inactive) | 27 µM (inactive) | > 100 µM (inactive) | 23.3 µM (inactive) | 22.5 µM (inactive) | 32.5 µM (inactive) | 42.5 µM (inactive) |  | 44.8 µM (inactive) | 54 µM (inactive)
Cc1nc(C(N)=S)sc1C(=O)CC(=O)C(=O)Nc1ccc(Br)cc1 | > 100 µM (inactive) | > 100 µM (inactive) | > 100 µM (inactive) |  | > 100 µM (inactive) | > 100 µM (inactive) | > 100 µM (inactive) | > 100 µM (inactive) | > 100 | > 100 µM (inactive) | > 100 µM (inactive) | > 100 µM (inactive) | > 100 µM (inactive) | > 100 µM (inactive) | > 100 µM (inactive) | > 100 µM (inactive) | > 100 µM (inactive) | > 100 µM (inactive) | > 100 µM (inactive) | > 100 µM (inactive)
CCN(CC)C(=S)N/N=C/c1cc([N+](=O)[O-])ccc1O | 8.53 µM (inactive) | 3.12 µM (inactive) | 3.65 µM (inactive) | 1.74 µM (inactive) | 3.27 µM (inactive) | 3.01 µM (inactive) | 7.4 µM (inactive) | 6.59 µM (inactive) | 3.62 | 2.22 µM (inactive) | 3.66 µM (inactive) | 53.2 µM (inactive) | 3.95 µM (inactive) | 5.48 µM (inactive) | 3.56 µM (inactive) | 2.31 µM (inactive) | 4.56 µM (inactive) | 6.97 µM (inactive) |  | 3 µM (inactive)
COc1ccc(C#CC(=O)O)c(OC)c1 | > 100 µM (inactive) | > 100 µM (inactive) | > 100 µM (inactive) | > 100 µM (inactive) | > 100 µM (inactive) | > 100 µM (inactive) | > 100 µM (inactive) | > 100 µM (inactive) | > 100 | > 100 µM (inactive) |  | > 100 µM (inactive) | > 100 µM (inactive) | > 100 µM (inactive) | > 100 µM (inactive) | > 100 µM (inactive) | > 100 µM (inactive) |  | > 100 µM (inactive) | > 100 µM (inactive)
COCCCNc1c2ccccc2nc2ccccc12 | 2.42 µM (inactive) | 2.05 µM (inactive) | 2.64 µM (inactive) | 2.86 µM (inactive) | 2.18 µM (inactive) | 2.22 µM (inactive) | 3.29 µM (inactive) | 2.92 µM (inactive) | 1.3 | 2.34 µM (inactive) | 3.75 µM (inactive) | 2.78 µM (inactive) | 2.78 µM (inactive) | 3.85 µM (inactive) | 2.68 µM (inactive) |  | 3.61 µM (inactive) | 3.35 µM (inactive) |  | 1.54 µM (inactive)
O=C(Nc1ccc(Cl)c(Cl)c1)OCCN1c2ccccc2Sc2ccccc21 | > 10 µM (inactive) |  | > 10 µM (inactive) | > 10 µM (inactive) | > 10 µM (inactive) | > 10 µM (inactive) | > 10 µM (inactive) | > 10 µM (inactive) | > 10 | > 10 µM (inactive) | > 10 µM (inactive) | > 10 µM (inactive) | > 10 µM (inactive) | > 10 µM (inactive) | > 10 µM (inactive) |  | > 10 µM (inactive) |  | > 10 µM (inactive) | 
O=C1C/C(=C\c2ccccc2)C(=O)c2ccccc2N1 | 26.9 µM (inactive) |  | 20 µM (inactive) | 42.8 µM (inactive) | 19.2 µM (inactive) | 20.6 µM (inactive) | 27.5 µM (inactive) | 24.7 µM (inactive) | 24.7 | 81.7 µM (inactive) | 38.2 µM (inactive) | 60.1 µM (inactive) | 35.2 µM (inactive) | 23.3 µM (inactive) | 18.8 µM (inactive) | 24.3 µM (inactive) | 17.4 µM (inactive) | 19.6 µM (inactive) |  | 29.3 µM (inactive)
CC(=O)/N=S(/NC(=O)c1ccc(C)cc1)C(Cl)(Cl)Cl (stereo unspecified) | 44 µM (inactive) | 26.1 µM (inactive) | 31.2 µM (inactive) |  | 99.3 µM (inactive) | 29.7 µM (inactive) | 56.4 µM (inactive) | 24.1 µM (inactive) | 42.8 | 51.9 µM (inactive) | 97.1 µM (inactive) | 59.3 µM (inactive) | 70 µM (inactive) | 19.1 µM (inactive) | 15.6 µM (inactive) | > 100 µM (inactive) | > 100 µM (inactive) | 44.6 µM (inactive) | 74.3 µM (inactive) | 38.5 µM (inactive)
O=C1/C(=C\c2ccc(Cl)cc2Cl)Sc2scc(-c3ccc(O)c(O)c3)[n+]21 | 18.8 µM (inactive) | 13 µM (inactive) | 13.4 µM (inactive) |  | 7.36 µM (inactive) | 16.4 µM (inactive) | 15.6 µM (inactive) | 11.6 µM (inactive) | 14.8 | 16.2 µM (inactive) | 30.3 µM (inactive) | 27.2 µM (inactive) | 15.8 µM (inactive) | 12.2 µM (inactive) | 17.2 µM (inactive) | 15.5 µM (inactive) | 17.4 µM (inactive) | 12.4 µM (inactive) |  | 16 µM (inactive)
N#Cc1nc(Cc2cccs2)oc1N | > 100 µM (inactive) | 27.5 µM (inactive) |  | > 100 µM (inactive) | > 100 µM (inactive) | > 100 µM (inactive) | > 100 µM (inactive) |  | > 100 | > 100 µM (inactive) | > 100 µM (inactive) | > 100 µM (inactive) | > 100 µM (inactive) | > 100 µM (inactive) | > 100 µM (inactive) |  |  | > 100 µM (inactive) | > 100 µM (inactive) | 
